Assay results as given in PubChem BioAssay (NCI).
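Grown in 96-well plates, cells were treated for 48 hours with each compound at five concentrations. Insufficient inhibition: endpoint recorded as highest concentration tested. TGI: total growth inhibition.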

Tests used:
Test in all cases: DTP human tumour cell line panel, 48 h
SK-MEL-2 melanoma = test system: SK-MEL-2 melanoma
HCT-116 colon = test system: HCT-116 colon
MALME-3M melanoma = test system: MALME-3M melanoma
KM12 colon = test system: KM12 colon
A549 NSCLC = test system: A549 NSCLC
SN12C renal = test system: SN12C renal
SK-MEL-5 melanoma = test system: SK-MEL-5 melanoma
TK-10 renal = test system: TK-10 renal
SW-620 colon = test system: SW-620 colon
MDA-MB-231 breast = test system: MDA-MB-231 breast
SR leukemia = test system: SR leukemia

| Compound | TGI (SK-MEL-2 melanoma) [µM] | TGI (HCT-116 colon) [µM] | TGI (MALME-3M melanoma) [µM] | TGI (KM12 colon) [µM] | TGI (A549 NSCLC) [µM] | TGI (SN12C renal) [µM] | TGI (SK-MEL-5 melanoma) [µM] | TGI (TK-10 renal) [µM] | TGI (SW-620 colon) [µM] | TGI (MDA-MB-231 breast) [µM] | TGI (SR leukemia) [µM] |
| --- | --- | --- | --- | --- | --- | --- | --- | --- | --- | --- | --- |
| CCCCOC(=O)C1CN2C(=NC1(C(F)(F)F)C(F)(F)F)Sc1ccccc12 (stereo unspecified) | > 100 | > 100 | > 100 | > 100 | > 100 | > 100 | 54.2 | > 100 | > 100 | > 100 | – |
| CC1OC(OC2CC(O)(C(=O)CO)Cc3c(O)c4c(c(O)c32)C(=O)c2ccccc2C4=O)CC(N)C1O (stereo unspecified) | – | 0.407 | 0.0864 | 4.59 | – | 0.887 | 0.0523 | – | 2.48 | 7.4 | – |
| CCNc1ncnc2n[nH]nc12 | > 100 | > 100 | > 100 | > 100 | > 100 | > 100 | > 100 | > 100 | > 100 | > 100 | – |
| COc1cc(/C=C(\C#N)c2ccccn2)cc(Br)c1O | > 100 | > 100 | > 100 | > 100 | > 100 | > 100 | > 100 | > 100 | > 100 | – | > 100 |
| CC(C)=CCC[C@H](C)[C@H]1CC[C@@H](C)c2cc(O)c(C)cc21 | 32.4 | 32.9 | 33.4 | 37.5 | 32.6 | 29.8 | 30.4 | 32.8 | 56.6 | 34 | – |
| CCn1cnc2c(NC(C)=O)ncnc21 | > 100 | > 100 | > 100 | > 100 | > 100 | > 100 | > 100 | > 100 | > 100 | > 100 | – |
| O=C(N/C(=C\c1ccccc1)C1Nc2ccccc2C(=O)O1)c1ccccc1 (stereo unspecified) | 62 | 36.8 | 45.6 | 31.2 | > 100 | 84.6 | 34.7 | > 100 | 59.6 | > 100 | – |
| COc1ccc(-c2nnc(CCCCCCCCc3nnc(-c4ccc(OC)cc4)o3)o2)cc1 | > 100 | > 100 | > 100 | > 100 | > 100 | > 100 | > 100 | > 100 | > 100 | > 100 | – |
| CC(C)(O)[C@H](CCO)O[Si](c1ccccc1)(c1ccccc1)C(C)(C)C | 28.4 | 17.6 | 31.5 | 25.5 | 22.1 | 14 | 27.2 | 25.9 | 26.8 | – | 26.4 |
| COc1cc(C=O)c(-c2cc3c(cc2C=O)OCO3)c(OC)c1OC | 190 | 131 | > 290 | 159 | > 290 | 260 | > 290 | > 290 | > 290 | – | > 290 |
| CN1CCN(c2ccc(-n3cc(C(=O)O)c(=O)c4cc(F)c(N5CCN(C)CC5)cc43)nc2)CC1 | – | > 100 | > 100 | > 100 | > 100 | > 100 | – | > 100 | > 100 | > 100 | > 100 |
